Tests used:
autistic children [1] = assay: Fecal Chymotrypsin Test after secretin infusion in autistic children (Experiments 1 and 2); assay type: in vivo, human; settings: 6 Months Post-Secretin Administration
Experimental: In this experiment, 16 children diagnosed as having autism were administered the following Fecal Chymotrypsin Test in accordance with an embodiment of the invention. First, approximately 2 grams of stool were collected from each child and placed in a sterile container (although it is to be understood that any quantity of stool may be collected, as 2 grams of stool is not a required amount). Each stool sample was then analyzed using, e.g., an enzymatic photospectrometry analysis as is known by those skilled in the art, to determine the level of fecal chymotrypsin in the stool. Although the enzymatic photospectrophotometry process is preferred, any suitable conventional method may be used for measuring the fecal chymotrypsin levels. The measured chymotrypsin levels of the 16 autistic children are illustrated in FIG. 13.
After determining the chymotrypsin levels of the stools, each of these levels were compared with threshold chymotrypsin levels to determine if the child was likely to benefit from secretin administration. By way of example, with the fecal chymotrypsin tests of the stool samples being performed at 30° C., normal levels of chymotrypsin are deemed to lie above 8.4 U/gram, whereas pathologically abnormal levels are deemed to lie below 4.2 U/gram. In addition, chymotrypsin levels between 8.4 U/gram and 4.2 U/gram are considered equivocal, and further testing of the individual's fecal chymotrypsin levels over a period of time should be performed. […]
The results of Experiment 1 are illustrated in FIGS. 1-14. For instance, approximately one week after the first secretin infusion, the fecal chymotrypsin level of each of the 16 autistic children was measured again. […]
In this experiment, 37 autistic children with abnormal fecal chymotrypsin levels were administered secretin over the course of 6 months using the secretin infusion process described above. Their fecal chymotrypsin (FC) levels were measured weekly using the fecal chymotrypsin test described above.

autistic children [2] = assay: CARS (Childhood Autism Rating Scale) test pre- and post-secretin administration (Experiment 1); assay type: in vivo, human; settings: 16 autistic children; 3 weeks post infusion vs pre-secretin
Experimental: Upon determining that a given child was likely to benefit from secretin administration based on the results of the fecal chymotrypsin test, the child was administered a CARS (Childhood Autism Rating Scale) test prior to being scheduled for secretin infusion.
For each of the 16 autistic children tested, a preferred secretin infusion process according to the present invention was performed involving the administering of 1 U/kg of body weight of Secretin-Ferring for a period of nine months at intervals of approximately 6 weeks. In addition, another CARS test was administered to each of the 16 autistic children 3 weeks post secretin administration to determine if their autism had changed post infusion.
A preferred secretin infusion process includes the initial step of prepping an arm of the candidate child with an IV injection of saline. A test dose of 1 U of Secretin-Ferring is then administered to the child. Approximately one minute after, infusion, the child is examined for signs of allergic reaction including rash, increased heart rate, and increase of blood pressure. […] Subsequently, each child receives a 1 U/kg of body weight infusion of Secretin-Ferring approximately every 6 weeks for 9 months. It is to be understood that any commercially available form of secretin may be used. […]

[3] = system: children diagnosed with Autism; settings: secretin given as diagnostic procedure during upper gastrointestinal endoscopy; Horvath et al. 1998; cited from earlier work
[4] = of 37 children (pre-secretin 0)

Substance: secretin
- # Autistic Children w/Equivocal FC levels (autistic children [1]; [4]): 2
- # Autistic Children w/normal FC levels (autistic children [1]; [4]): 34
- # Autistic Children w/Abnormal FC levels (autistic children [1]; of 37 children (pre-secretin 37)): 1
- CARS component scores (autistic children [2]): demonstrated improvement except for the fear component which increased
- effect on symptoms associated with Autism [3]: ameliorating the symptoms associated with Autism
